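48-hour exposure; five concentrations; linearly interpolated endpoints. Here, GI50 denotes the concentration required for 50% inhibition of growth.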 Active and inactive are the calls of the source. Cut-off read from the data, not from the text of the source: active = GI50 up to about 1.1 µM and inactive = higher.

Among the test systems are ACHN; SR; IGROV-1; HOP-92; MCF7; RXF 393; U-251; A549; EKVX; TK-10; T47D; UACC-257; HCC 2998; UO-31; CCRF-CEM; K562; PC-3; RPMI-8226; OVCAR-4; SK-OV-3.
What all share (assay): NCI tumour cell line growth inhibition, 48 h

With `COc1cc(-c2[o+]c3cc(O)cc(O)c3cc2O)cc(O)c1O`, the GI50 with ACHN was > 100 µM (inactive); in the assay with SR it was 96.6 µM (inactive); in the assay with IGROV-1 it was > 100 µM (inactive); in the assay with HOP-92, > 100 µM (inactive); with MCF7, 21.3 µM (inactive); in the assay with RXF 393 it was > 100 µM (inactive). Besides, the GI50 in the assay with U-251 is > 100 µM (inactive); with A549 it was > 100 µM (inactive); with EKVX it was 92.9 µM (inactive); in the assay on TK-10 it was > 100 µM (inactive); with T47D, > 100 µM (inactive); with UACC-257, > 100 µM (inactive). Also, the GI50 with HCC 2998 is 35 µM (inactive); in the assay with UO-31, > 100 µM (inactive); in the assay with CCRF-CEM, 25.9 µM (inactive); with K562, > 100 µM (inactive); with PC-3, > 100 µM (inactive); in the assay with RPMI-8226, > 100 µM (inactive). Moreover, the values for the GI50 in the assay with OVCAR-4 and in the assay on SK-OV-3 were 60 µM (inactive) and > 100 µM (inactive), respectively.

As to `COc1cc2nc(-c3ccccc3)cc(O)c2cc1OC`, the GI50 with ACHN is 41.1 µM (inactive); in the assay with SR, 6 µM (inactive); in the assay on IGROV-1, 28.2 µM (inactive); in the assay with HOP-92, 33.7 µM (inactive); in the assay on MCF7, 2.54 µM (inactive); in the assay on RXF 393, 21.2 µM (inactive). Besides, the GI50 was 6.95 µM (inactive) with U-251; 18.5 µM (inactive) in the assay on A549; > 100 µM (inactive) with EKVX; 55.8 µM (inactive) with TK-10; > 100 µM (inactive) in the assay on T47D; 63.7 µM (inactive) with UACC-257. Also, the GI50 is 16.5 µM (inactive) in the assay with HCC 2998; 52 µM (inactive) in the assay with UO-31; 8 µM (inactive) in the assay with CCRF-CEM; 4.76 µM (inactive) in the assay with K562; 23 µM (inactive) with PC-3; 27 µM (inactive) in the assay with RPMI-8226. Besides, the values for the GI50 in the assay with OVCAR-4 and in the assay with SK-OV-3 were > 73.3 µM (inactive) and 35.6 µM (inactive), respectively.

In the case of `CCCCCCNCCCNc1c2cc(OC)ccc2nc2cccc([N+](=O)[O-])c12`, the GI50 is 0.14 µM (active) with ACHN; 0.0173 µM (active) with SR; 0.0119 µM (active) in the assay with IGROV-1; 0.136 µM (active) in the assay on HOP-92; 0.212 µM (active) in the assay with MCF7; 0.0245 µM (active) in the assay with RXF 393. The GI50 in the assay with U-251 is 0.131 µM (active); with A549, 0.0578 µM (active); in the assay on EKVX, 0.0986 µM (active); in the assay on TK-10 it was 0.131 µM (active); with T47D, 0.109 µM (active); with UACC-257, 0.366 µM (active). Also, the GI50 in the assay on HCC 2998 was 0.0203 µM (active); with UO-31 it was 0.188 µM (active); with CCRF-CEM, 0.0403 µM (active); with K562, 0.103 µM (active); with PC-3, 0.144 µM (active); in the assay on RPMI-8226, < 0.0289 µM (active). In addition, the GI50 is 0.113 µM (active) in the assay on OVCAR-4 and 0.627 µM (active) with SK-OV-3.

On to `O=P(c1ccccc1)(c1ccccc1)N1O[C@@H](c2ccccc2)C=C[C@H]1c1ccccc1`, for which the GI50 in the assay on ACHN is 10.2 µM (inactive); in the assay on SR it was 4.46 µM (inactive); in the assay on IGROV-1 it was 10.8 µM (inactive); with HOP-92 it was 11.6 µM (inactive); with MCF7, 3.4 µM (inactive); in the assay on RXF 393, 10 µM (inactive). Moreover, the GI50 in the assay with U-251 is 4.37 µM (inactive); in the assay with A549 it was 8.81 µM (inactive); in the assay with EKVX, 10.4 µM (inactive); in the assay with TK-10, 14 µM (inactive); in the assay with T47D, 4.61 µM (inactive); with UACC-257, 11.9 µM (inactive). For the same molecule, the GI50 is 13.7 µM (inactive) with HCC 2998; 5.13 µM (inactive) in the assay on UO-31; 10.5 µM (inactive) with CCRF-CEM; 6.17 µM (inactive) in the assay with K562; 2.96 µM (inactive) in the assay on PC-3; 5.79 µM (inactive) in the assay on RPMI-8226. Besides, the GI50 is 2.57 µM (inactive) in the assay on OVCAR-4 and 15.1 µM (inactive) in the assay with SK-OV-3.

For the molecule `C=C1C(=O)OC2/C=C(CO)/C=C\C3OC3(C)CC(OC(=O)/C(C)=C/COC(C)=O)C12` (stereo not given), the GI50 with ACHN was 3.14 µM (inactive); with SR, 0.56 µM (active); in the assay on IGROV-1, 7.8 µM (inactive); in the assay on HOP-92, 2.62 µM (inactive); in the assay on MCF7, 3.15 µM (inactive); in the assay on RXF 393 it was 1.85 µM (inactive). For the same molecule, the GI50 was 3.95 µM (inactive) in the assay with U-251; 11.9 µM (inactive) in the assay with A549; 3.78 µM (inactive) in the assay on EKVX; 5.16 µM (inactive) in the assay with TK-10; 2.65 µM (inactive) in the assay with T47D; 2.37 µM (inactive) with UACC-257. For the same molecule, the GI50 in the assay with HCC 2998 was 13.4 µM (inactive); with UO-31 it was 6.11 µM (inactive); in the assay on CCRF-CEM it was 1.26 µM (inactive); in the assay on K562, 3.3 µM (inactive); with PC-3, 10 µM (inactive); in the assay on RPMI-8226 it was 0.716 µM (active). Further, the figures for the GI50 in the assay on OVCAR-4 and in the assay with SK-OV-3 were 3.99 µM (inactive) and 17.8 µM (inactive), respectively.

In the case of `CCCCC(=O)OC[n+]1ccc(-c2c(COC(=O)NC(C)C)c(COC(=O)NC(C)C)c3n2CCC3)cc1`, the GI50 in the assay with ACHN is 34.6 µM (inactive); in the assay on SR, 10 µM (inactive); in the assay with IGROV-1, > 100 µM (inactive); in the assay with HOP-92, > 84.1 µM (inactive); in the assay on MCF7, 50.8 µM (inactive); in the assay on RXF 393, 64 µM (inactive). Moreover, the GI50 with U-251 was > 71.3 µM (inactive); with A549 it was > 100 µM (inactive); in the assay with EKVX, > 100 µM (inactive); in the assay with TK-10, > 100 µM (inactive); in the assay on T47D, > 100 µM (inactive); with UACC-257 it was > 100 µM (inactive). For the same molecule, the GI50 with HCC 2998 was > 100 µM (inactive); in the assay with UO-31, > 100 µM (inactive); in the assay with CCRF-CEM, 33.7 µM (inactive); with K562 it was > 90.8 µM (inactive); in the assay on PC-3, > 84.5 µM (inactive); with RPMI-8226 it was > 68.7 µM (inactive). Also, the GI50 in the assay with OVCAR-4 and in the assay on SK-OV-3 was > 100 µM (inactive) each time.

For `COC(OC)(c1ccccc1)C(I)I`, the GI50 in the assay on ACHN was 16.5 µM (inactive); in the assay on SR, 2.04 µM (inactive); with IGROV-1, 13.9 µM (inactive); in the assay with HOP-92, 13.4 µM (inactive); with MCF7 it was 18.7 µM (inactive); in the assay on RXF 393 it was 2.32 µM (inactive). In addition, the GI50 was 16.5 µM (inactive) in the assay with U-251; 18.5 µM (inactive) in the assay with A549; 12 µM (inactive) in the assay with EKVX; 13.3 µM (inactive) with TK-10; 19.2 µM (inactive) with T47D; 3.45 µM (inactive) in the assay with UACC-257. Moreover, the GI50 with HCC 2998 was 23.1 µM (inactive); in the assay on UO-31 it was 16.3 µM (inactive); with CCRF-CEM it was 2.31 µM (inactive); in the assay with K562, 2.58 µM (inactive); in the assay on PC-3 it was 14.2 µM (inactive); in the assay with RPMI-8226, 2.09 µM (inactive). Also, the GI50 is 14.2 µM (inactive) in the assay with OVCAR-4 and 12.1 µM (inactive) with SK-OV-3.

Consider `CCN(CC)CCCn1c(=O)c2cccnc2n2c3c(=O)n(C)c(=O)n(C)c3nc12`, for which the GI50 in the assay on ACHN, in the assay with SR, in the assay with IGROV-1, in the assay on HOP-92, with MCF7 and with RXF 393 was > 100 µM (inactive) throughout. Further, the GI50 in the assay with U-251, in the assay on A549, with EKVX, in the assay with TK-10, in the assay with T47D and in the assay on UACC-257 was > 100 µM (inactive) each time. Besides, the GI50 in the assay on HCC 2998, with UO-31, with CCRF-CEM, in the assay on K562, with PC-3 and with RPMI-8226 was > 100 µM (inactive) in each case. Moreover, the GI50 in the assay with OVCAR-4 and in the assay on SK-OV-3 was > 100 µM (inactive) each time.

In the case of `CN(NC(=O)c1cccs1)C1=NCCN1`, the GI50 with ACHN, with SR, in the assay on IGROV-1, with HOP-92, with MCF7 and in the assay with RXF 393 was > 100 µM (inactive) in each case. Further, the GI50 in the assay on U-251 was > 100 µM (inactive); with A549, > 100 µM (inactive); with EKVX it was > 100 µM (inactive); in the assay on TK-10 it was 23.8 µM (inactive); with T47D, > 100 µM (inactive); with UACC-257 it was > 100 µM (inactive). For the same molecule, the GI50 with HCC 2998, in the assay with UO-31, in the assay on CCRF-CEM, in the assay on K562, in the assay on PC-3 and with RPMI-8226 was > 100 µM (inactive) each time. Also, the GI50 in the assay on OVCAR-4 and in the assay with SK-OV-3 was > 100 µM (inactive) throughout.

Consider `O=c1c2ccccc2n2cnc3ccc(NCCNCCO)c1c32`, for which the GI50 in the assay on ACHN is 0.836 µM (active); with SR, 0.467 µM (active); in the assay with IGROV-1, 1.91 µM (inactive); in the assay with HOP-92, 4.24 µM (inactive); in the assay on MCF7 it was 2.52 µM (inactive); in the assay with RXF 393, 0.757 µM (active). For the same molecule, the GI50 in the assay on U-251 was 2.1 µM (inactive); with A549, 1.05 µM (active); in the assay on EKVX, 2.56 µM (inactive); in the assay with TK-10, 2.92 µM (inactive); with T47D it was 4.76 µM (inactive); in the assay on UACC-257, 3.37 µM (inactive). Besides, the GI50 was 1.77 µM (inactive) in the assay on HCC 2998; 2.87 µM (inactive) in the assay on UO-31; 1.22 µM (inactive) in the assay on CCRF-CEM; 1.34 µM (inactive) in the assay with K562; 1.91 µM (inactive) in the assay on PC-3; 2.2 µM (inactive) in the assay with RPMI-8226. Moreover, the GI50 in the assay with OVCAR-4 is 1.44 µM (inactive); in the assay on SK-OV-3, 2.99 µM (inactive).

The record behind these values is ChEMBL document CHEMBL1201862, “PubChem BioAssay data set” (2004).
